Assay [1] has as its system HCV genotype 1a (strain H77) subgenomic replicon with NS3 resistance mutation R155K in Huh-7 cells. In words: HCV replicon RNA replication assay (NS3 protease variants), genotype 1a R155K. Type of assay: cell-based. To be noted: Hepatitis C virus, Huh-7, 72 h, read-out: R155K 1a EC50 (nM).
Assay [2] deals with HCV genotype 1b (Con-1) subgenomic replicon with NS3 resistance mutation D168V in Huh-7 cells. In words: HCV replicon RNA replication assay (NS3 protease variants), genotype 1b D168V. Type of assay: cell-based. To be noted: Hepatitis C virus, Huh-7, 72 h, read-out: D168V 1b EC50 (nM).

As for `COc1ccc2c(O[C@@H]3C[C@H]4C(=O)N[C@]5(C(=O)NS(=O)(=O)C6CC6)C[C@H]5/C=C\CCCCC[C@H](NC(=O)c5cnn(C)n5)C(=O)N4C3)cc(OC(C)C)nc2c1C` [Compound 1013, (2R,6S,12Z,13aS,14aR,16aS)-N-(cyclopropylsulfonyl)-2-{[7-methoxy-8-methyl-2-(propan-2-yloxy)quinolin-4-yl]oxy}-6-{[(2-methyl-2H-1,2,3-triazol-4-yl)carbonyl]amino}-5,16-dioxo-1,2,3,6,7,8,9,10,11,13a,14,15,16,16a-tetradecahydrocyclopropa[e]pyrrolo[1,2-a][1,4]diazacyclopentadecine-14a(5H)-carboxamide], the EC50 in assay [1] is 7.8 nM; in assay [2], 0.52 nM.

With `CCOc1cc(O[C@@H]2C[C@H]3C(=O)N[C@]4(C(=O)NS(=O)(=O)C5CC5)C[C@H]4/C=C\CCCCC[C@H](NC(=O)c4ccc(COC)s4)C(=O)N3C2)c2ccc(OC)c(C)c2n1` [Compound 1014, (2R,6S,12Z,13aS,14aR,16aS)-N-(cyclopropylsulfonyl)-2-[(2-ethoxy-7-methoxy-8-methylquinolin-4-yl)oxy]-6-({[5-(methoxymethyl)thiophen-2-yl]carbonyl}amino)-5,16-dioxo-1,2,3,6,7,8,9,10,11,13a,14,15,16,16a-tetradecahydrocyclopropa[e]pyrrolo[1,2-a][1,4]diazacyclopentadecine-14a(5H)-carboxamide], the figures for the EC50 in assay [1] and in assay [2] were 8.3 nM and 0.31 nM, respectively.

As for `COc1ccc2c(O[C@@H]3C[C@H]4C(=O)N[C@]5(C(=O)NS(=O)(=O)C6CC6)C[C@H]5/C=C\CCCCC[C@H](NC(=O)c5ccn(C)n5)C(=O)N4C3)cc(OCC(F)(F)F)nc2c1C` [Compound 1015, (2R,6S,12Z,13aS,14aR,16aS)-N-(cyclopropylsulfonyl)-2-{[7-methoxy-8-methyl-2-(2,2,2-trifluoroethoxy)quinolin-4-yl]oxy}-6-{[(1-methyl-1H-pyrazol-3-yl)carbonyl]amino}-5,16-dioxo-1,2,3,6,7,8,9,10,11,13a,14,15,16,16a-tetradecahydrocyclopropa[e]pyrrolo[1,2-a][1,4]diazacyclopentadecine-14a(5H)-carboxamide], the EC50 in assay [1] came out at 8.2 nM; in assay [2], 0.57 nM.

Turning to `CCOc1cc(O[C@@H]2C[C@H]3C(=O)N[C@]4(C(=O)NS(=O)(=O)C5CC5)C[C@H]4/C=C\CCCCC[C@H](NC(=O)c4ccn(C)n4)C(=O)N3C2)c2ccc(OC)c(Br)c2n1` [Compound 1017, (2R,6S,12Z,13aS,14aR,16aS)-2-[(8-bromo-2-ethoxy-7-methoxyquinolin-4-yl)oxy]-N-(cyclopropylsulfonyl)-6-{[(1-methyl-1H-pyrazol-3-yl)carbonyl]amino}-5,16-dioxo-1,2,3,6,7,8,9,10,11,13a,14,15,16,16a-tetradecahydrocyclopropa[e]pyrrolo[1,2-a][1,4]diazacyclopentadecine-14a(5H)-carboxamide], the EC50 in assay [1] was found to be 9.5 nM; in assay [2], 1.1 nM.

`COc1ccc2c(O[C@@H]3C[C@H]4C(=O)N[C@]5(C(=O)NS(=O)(=O)C6(C)CC6)C[C@H]5/C=C\CCCCC[C@H](NC(=O)c5ccn(C(F)F)n5)C(=O)N4C3)cc(OC(C)C)nc2c1C` [Compound 1018, (2R,6S,12Z,13aS,14aR,16aS)-6-({[1-(difluoromethyl)-1H-pyrazol-3-yl]carbonyl}amino)-2-{[7-methoxy-8-methyl-2-(propan-2-yloxy)quinolin-4-yl]oxy}-N-[(1-methylcyclopropyl)sulfonyl]-5,16-dioxo-1,2,3,6,7,8,9,10,11,13a,14,15,16,16a-tetradecahydrocyclopropa[e]pyrrolo[1,2-a][1,4]diazacyclopentadecine-14a(5H)-carboxamide]: the results for the EC50 in assay [1] and in assay [2] were 2.4 nM and 0.14 nM, respectively.

Regarding `CCn1ccc(C(=O)N[C@H]2CCCCC/C=C\[C@@H]3C[C@@]3(C(=O)NS(=O)(=O)C3(C)CC3)NC(=O)[C@@H]3C[C@@H](Oc4cc(OC(C)C)nc5c(C)c(OC)ccc45)CN3C2=O)n1` [Compound 1019, (2R,6S,12Z,13aS,14aR,16aS)-6-{[(1-ethyl-1H-pyrazol-3-yl)carbonyl]amino}-2-{[7-methoxy-8-methyl-2-(propan-2-yloxy)quinolin-4-yl]oxy}-N-[(1-methylcyclopropyl)sulfonyl]-5,16-dioxo-1,2,3,6,7,8,9,10,11,13a,14,15,16,16a-tetradecahydrocyclopropa[e]pyrrolo[1,2-a][1,4]diazacyclopentadecine-14a(5H)-carboxamide], the EC50 in assay [1] turned out to be 0.88 nM; in assay [2] it was 0.16 nM.

Consider `COc1ccc2c(O[C@@H]3C[C@H]4C(=O)N[C@]5(C(=O)NS(=O)(=O)C6(C)CC6)C[C@H]5/C=C\CCCCC[C@H](NC(=O)c5ccn(CC(C)C)n5)C(=O)N4C3)cc(OC(C)C)nc2c1C` [Compound 1020, (2R,6S,12Z,13aS,14aR,16aS)-2-{[7-methoxy-8-methyl-2-(propan-2-yloxy)quinolin-4-yl]oxy}-N-[(1-methylcyclopropyl)sulfonyl]-6-({[1-(2-methylpropyl)-1H-pyrazol-3-yl]carbonyl}amino)-5,16-dioxo-1,2,3,6,7,8,9,10,11,13a,14,15,16,16a-tetradecahydrocyclopropa[e]pyrrolo[1,2-a][1,4]diazacyclopentadecine-14a(5H)-carboxamide], for which the EC50 in assay [1] is 3.1 nM; in assay [2], 0.23 nM.

Regarding `COc1ccc2c(O[C@@H]3C[C@H]4C(=O)N[C@]5(C(=O)NS(=O)(=O)C6(C)CC6)C[C@H]5/C=C\CCCCC[C@H](NC(=O)c5ccn(C(C)C)n5)C(=O)N4C3)cc(OC(C)C)nc2c1C` [Compound 1021, (2R,6S,12Z,13aS,14aR,16aS)-2-{[7-methoxy-8-methyl-2-(propan-2-yloxy)quinolin-4-yl]oxy}-N-[(1-methylcyclopropyl)sulfonyl]-5,16-dioxo-6-({[1-(propan-2-yl)-1H-pyrazol-3-yl]carbonyl}amino)-1,2,3,6,7,8,9,10,11,13a,14,15,16,16a-tetradecahydrocyclopropa[e]pyrrolo[1,2-a][1,4]diazacyclopentadecine-14a(5H)-carboxamide], the EC50 came to 4.3 nM in assay [1] and 0.24 nM in assay [2].

Regarding `COc1ccc2c(O[C@@H]3C[C@H]4C(=O)N[C@]5(C(=O)NS(=O)(=O)C6(C)CC6)C[C@H]5/C=C\CCCCC[C@H](NC(=O)c5ccn(C)n5)C(=O)N4C3)cc(OC3CCC3)nc2c1C` [Compound 1022, (2R,6S,12Z,13aS,14aR,16aS)-2-{[2-(cyclobutyloxy)-7-methoxy-8-methylquinolin-4-yl]oxy}-N-[(1-methylcyclopropyl)sulfonyl]-6-{[(1-methyl-1H-pyrazol-3-yl)carbonyl]amino}-5,16-dioxo-1,2,3,6,7,8,9,10,11,13a,14,15,16,16a-tetradecahydrocyclopropa[e]pyrrolo[1,2-a][1,4]diazacyclopentadecine-14a(5H)-carboxamide], the EC50 in assay [1] worked out at 6.8 nM; in assay [2], 0.24 nM.

In the case of `COc1ccc2c(O[C@@H]3C[C@H]4C(=O)N[C@]5(C(=O)NS(=O)(=O)C6(C)CC6)C[C@H]5/C=C\CCCCC[C@H](NC(=O)c5ccn(CC(F)(F)F)n5)C(=O)N4C3)cc(OC3CCC3)nc2c1C` [Compound 1023, (2R,6S,12Z,13aS,14aR,16aS)-2-{[2-(cyclobutyloxy)-7-methoxy-8-methylquinolin-4-yl]oxy}-N-[(1-methylcyclopropyl)sulfonyl]-5,16-dioxo-6-({[1-(2,2,2-trifluoroethyl)-1H-pyrazol-3-yl]carbonyl}amino)-1,2,3,6,7,8,9,10,11,13a,14,15,16,16a-tetradecahydrocyclopropa[e]pyrrolo[1,2-a][1,4]diazacyclopentadecine-14a(5H)-carboxamide], the EC50 in assay [1] was 8.2 nM; in assay [2], 0.25 nM.

As for `CCn1ccc(C(=O)N[C@H]2CCCCC/C=C\[C@@H]3C[C@@]3(C(=O)NS(=O)(=O)C3CC3)NC(=O)[C@@H]3C[C@@H](Oc4cc(OC(C)C)nc5c(C)c(OC)ccc45)CN3C2=O)n1` [Compound 1024, (2R,6S,12Z,13aS,14aR,16aS)-N-(cyclopropylsulfonyl)-6-{[(1-ethyl-1H-pyrazol-3-yl)carbonyl]amino}-2-{[7-methoxy-8-methyl-2-(propan-2-yloxy)quinolin-4-yl]oxy}-5,16-dioxo-1,2,3,6,7,8,9,10,11,13a,14,15,16,16a-tetradecahydrocyclopropa[e]pyrrolo[1,2-a][1,4]diazacyclopentadecine-14a(5H)-carboxamide], the EC50 was 3.9 nM in assay [1] and 0.31 nM in assay [2].

Take `CCOc1cc(O[C@@H]2C[C@H]3C(=O)N[C@]4(C(=O)NS(=O)(=O)C5CC5)C[C@H]4/C=C\CCCCC[C@H](NC(=O)c4ccc(C)s4)C(=O)N3C2)c2ccc(OC)c(Br)c2n1` [Compound 1025, (2R,6S,12Z,13aS,14aR,16aS)-2-[(8-bromo-2-ethoxy-7-methoxyquinolin-4-yl)oxy]-N-(cyclopropylsulfonyl)-6-{[(5-methylthiophen-2-yl)carbonyl]amino}-5,16-dioxo-1,2,3,6,7,8,9,10,11,13a,14,15,16,16a-tetradecahydrocyclopropa[e]pyrrolo[1,2-a][1,4]diazacyclopentadecine-14a(5H)-carboxamide]: the EC50 in assay [1] turned out to be 4.1 nM; in assay [2], 0.32 nM.

Take `COc1ccc2c(O[C@@H]3C[C@H]4C(=O)N[C@]5(C(=O)NS(=O)(=O)C6(C)CC6)C[C@H]5/C=C\CCCCC[C@H](NC(=O)c5cc(C)n(C)n5)C(=O)N4C3)cc(OC(C)C)nc2c1C` [Compound 1026, (2R,6S,12Z,13aS,14aR,16aS)-6-{[(1,5-dimethyl-1H-pyrazol-3-yl)carbonyl]amino}-2-{[7-methoxy-8-methyl-2-(propan-2-yloxy)quinolin-4-yl]oxy}-N-[(1-methylcyclopropyl)sulfonyl]-5,16-dioxo-1,2,3,6,7,8,9,10,11,13a,14,15,16,16a-tetradecahydrocyclopropa[e]pyrrolo[1,2-a][1,4]diazacyclopentadecine-14a(5H)-carboxamide]: the EC50 in assay [1] is 3.3 nM; in assay [2], 0.32 nM.

As usually defined, the EC50 is the concentration needed to bring the measured effect to its halfway point.

For the origin of these results see patent US20110294778A1, “HEPATITIS C INHIBITOR COMPOUNDS” (priority 2009, published 2011).
